From ChEMBL document CHEMBL3856212, “Synthesis, anti-proliferative and genotoxicity studies of 6-chloro-5-(2-substituted-ethyl)-1,3-dihydro-2H-indol-2-ones and 6-chloro-5-(2-chloroethyl)-3-(alkyl/ary-2-ylidene)indolin-2-ones” (Eur J Med Chem, 2016)

Key:
Format in all cases: functional
[1] = Cytotoxicity against human RXF393 cells assessed as growth inhibition after 48 hrs by SRB assay; details: RXF 393, 48 h; for CC50: read-out: LD50 (the source's name)
[2] = Cytotoxicity against human IGROV1 cells assessed as growth inhibition after 48 hrs by SRB assay; details: IGROV-1, 48 h; for CC50: read-out: LD50 (the source's name)
[3] = Cytotoxicity against human MALME-3M cells assessed as growth inhibition after 48 hrs by SRB assay; details: for CC50: read-out: LD50 (the source's name)
[4] = Cytotoxicity against human HOP92 cells assessed as growth inhibition after 48 hrs by SRB assay; details: HOP-92, 48 h; for CC50: read-out: LD50 (the source's name)
[5] = Cytotoxicity against human PC3 cells assessed as assessed as growth inhibition at 10^-5 M after 48 hrs by SRB assay relative to control; details: PC-3, 48 h, read-out: GI
[6] = Cytotoxicity against human UO31 cells assessed as assessed as growth inhibition at 10^-5 M after 48 hrs by SRB assay relative to control; details: UO-31, 48 h, read-out: GI
[7] = Cytotoxicity against human TK10 cells assessed as growth inhibition after 48 hrs by SRB assay; details: TK-10, 48 h; for CC50: read-out: LD50 (the source's name)
[8] = Cytotoxicity against human DU145 cells assessed as assessed as growth inhibition at 10^-5 M after 48 hrs by SRB assay relative to control; details: DU-145, 48 h, read-out: GI
[9] = Cytotoxicity against human T47D cells assessed as growth inhibition after 48 hrs by SRB assay; details: for CC50: read-out: LD50 (the source's name)
[10] = Cytotoxicity against human OVCAR5 cells assessed as growth inhibition after 48 hrs by SRB assay; details: OVCAR-5, 48 h; for CC50: read-out: LD50 (the source's name)
[11] = Cytotoxicity against human UACC62 cells assessed as assessed as growth inhibition at 10^-5 M after 48 hrs by SRB assay relative to control; details: UACC-62, 48 h, read-out: GI
[12] = Cytotoxicity against human SW1222 cells assessed as assessed as growth inhibition at 10^-5 M after 48 hrs by SRB assay relative to control; details: SW1222, 48 h, read-out: GI
[13] = Cytotoxicity against human SK-MEL-5 cells assessed as assessed as growth inhibition at 10^-5 M after 48 hrs by SRB assay relative to control; details: SK-MEL-5, 48 h, read-out: GI
[14] = Cytotoxicity against human UO31 cells assessed as growth inhibition after 48 hrs by SRB assay; details: UO-31, 48 h; for CC50: read-out: LD50 (the source's name)
[15] = Cytotoxicity against human MOLT4 cells assessed as growth inhibition after 48 hrs by SRB assay; details: MOLT-4, 48 h; for CC50: read-out: LD50 (the source's name)
[16] = Cytotoxicity against human COLO205 cells assessed as assessed as growth inhibition at 10^-5 M after 48 hrs by SRB assay relative to control; details: COLO 205, 48 h, read-out: GI

SMILES	GI50 [1] [µM]	TGI [1] [µM]	CC50 [1] [µM]	GI50 [2] [µM]	TGI [2] [µM]	CC50 [2] [µM]	GI50 [3] [µM]	inhibition of growth at 10 µM [5] [%]	inhibition of growth at 10 µM [6] [%]	GI50 [9] [µM]	TGI [9] [µM]	CC50 [9] [µM]	GI50 [10] [µM]	TGI [10] [µM]	CC50 [10] [µM]	inhibition of growth at 10 µM [11] [%]	inhibition of growth at 10 µM [13] [%]	GI50 [15] [µM]	TGI [15] [µM]	CC50 [15] [µM]	further results
O=C1Cc2cc(CCn3cncn3)c(Cl)cc2N1	7.48	> 1	> 1	1	> 1	> 1	1	13.6	34	1	> 1	> 1	1	> 1	> 1	31.8	59.9	1	> 1	> 1	TGI [3]: > 1 µM; CC50 [3]: > 1 µM; GI50 [4]: 3.02 µM; TGI [4]: > 1 µM; CC50 [4]: > 1 µM; GI50 [7]: 1 µM; TGI [7]: > 1 µM; CC50 [7]: > 1 µM; inhibition of growth at 10 µM [8]: 3.54%; inhibition of growth at 10 µM [12]: 45.8%; GI50 [14]: 1 µM; TGI [14]: > 1 µM; CC50 [14]: > 1 µM
O=C1Cc2cc(CCn3ccnc3)c(Cl)cc2N1	6.28	> 1	> 1	1	> 1	> 1	7.95	11.7	39.3	7.56	> 1	> 1	4.48	> 1	> 1	29.8	67.8	5.67	> 1	> 1	TGI [3]: > 1 µM; CC50 [3]: > 1 µM; GI50 [4]: 3.54 µM; TGI [4]: 9.15 µM; CC50 [4]: > 1 µM; inhibition of growth at 10 µM [16]: 29.9%; GI50 [7]: 1 µM; TGI [7]: > 1 µM; CC50 [7]: > 1 µM; inhibition of growth at 10 µM [8]: 31%; GI50 [14]: 5.85 µM; TGI [14]: > 1 µM; CC50 [14]: > 1 µM
O=C1Cc2cc(CCN3CCNCC3)c(Cl)cc2N1	6.89	> 1	> 1	–	–	–	–	16.5	36.8	2.91	> 1	> 1	7.92	> 1	> 1	44.8	65.4	1	> 1	> 1	inhibition of growth at 10 µM [16]: 40.1%; inhibition of growth at 10 µM [12]: 59.2%
